System: 786-0 complex spheroids with HUVEC/MSC, growth % test/control
Assay: Anticancer human tumor 786-0 cell line growth inhibition [AhR];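 further: compound exposure lasted seven days before the read-out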
Conditions: for IC50: curve of first compound; for viability, T/C: stronger effect = lower value
From the text: Multicellular complex tumor spheroid response to aryl hydrocarbon receptor antagonists in combination with a variety of drugs and investigational agents in selected tumor cell lines
The current study was undertaken to assess response to aryl hydrocarbon receptor antagonists in combination with standard-of-care drugs and investigational agents in solid tumor complex spheroid models. Complex spheroids include a stromal component modeled by human endothelial cells (HUVEC) and fibroblasts modeled by human mesenchymal stem cells (MSCs). The concentration ranges selected for each drug and investigational agent were based upon clinically achievable concentrations if the clinical Cmax of the agent was known.
Compounds. The drugs and investigational agents: BAY 2416964 (NSC825713), GNF351 (NSC835774), CH-223191 (NSC835775), CPI-455 (NSC825282), aza-TdCyd (NSC777586), decitabine (NSC127716), belinostat (NSC758774), entinostat (NSC756642), pevonedistat (NSC761192), tazemetostat (NSC777109), talazoparib (NSC765396), olaparib (NSC753686), selinexor (NSC780203), nedisertib (M3814, NSC802822), bortezomib (NSC756655), venetoclax (NSC766270), doxorubicin (NSC123127), elimusertib (BAY189344, NSC800525), ceralasertib (AZD6738, NSC777638), TAK-243 (NSC785004), alisertib (NSC759677), etoposide (NSC141540), topotecan (NSC609699), eribulin (NSC707389), gemcitabine (NSC613327), carboplatin (NSC241240), cisplatin (NSC119875), and SN-38 (NSC673596) were obtained from the National Cancer Institute (NCI) Developmental Therapeutics Program Chemical Repository (32). The FDA-approved anticancer drug set is available from the Developmental Therapeutics Program at https://dtp.cancer.gov/organization/dscb/obtaining/available plates.htm. […] The stock solutions were prepared in dimethyl sulfoxide (DMSO, Sigma-Aldrich, St. Louis, MO, cat. D2650), except for the platinum compounds which were prepared in saline (Quality Biological, Gaithersburg, MD, cat. 114-055-101), at 800-fold the tested concentration and stored at -70 degrees C prior to their use. All drugs and investigational agents were tested over a range starting from a high concentration at or near the clinical Cmax and decreasing in half-log increments. If the clinical Cmax for an agent had not been determined, the highest concentration tested was 10 microM (Table 1).
Cell Culture. All cells were maintained in an incubator at 37 degrees C and 5% CO2 with 95% humidity. The PDC lines were cultured according to standard operating procedures established by the NCI PDMR (https://pdmr.cancer.gov). Briefly, all PDCs were thawed and cultured in Matrigel-coated flasks prepared with a working solution of 1X Ham's F-12 nutrient mix, without supplementation (Invitrogen, Waltham, MA, cat. 11765054), 100 U/mL penicillin-streptomycin (Invitrogen, cat. 15140122), and 2.5% Matrigel (Corning Inc., Corning, NY, cat. 354248) for the first three passages. All PDCs were cultured in complete DMEM/F-12 media containing advanced DMEM/F-12 (Invitrogen, cat. 12634028), 4.9% defined fetal bovine serum, heat inactivated (HyClone Laboratories Inc., Logan, UT, cat. SH30070.03HI), 389 ng/mL hydrocortisone (Sigma-Aldrich, cat. H4001), 9.7 ng/mL human EGF recombinant protein (Invitrogen, cat. PHG0313), 23.4 microg/mL adenine (Sigma-Aldrich, cat. A2786), 97.3 U/mL penicillin-streptomycin (Invitrogen, cat. 15140122), 1.9 mM L-glutamine (Invitrogen, cat. 25030081), and 9.7 microM Y-27632 dihydrochloride (Tocris Bioscience, Bristol, United Kingdom, cat. 1254). The PDCs were cultured in complete DMEM/F12 media without 10 microM Y-27632 dihydrochloride for at least two passages prior to the screen. The established cell lines NCI-H1341 and […] were cultured in DMEM/F-12, HEPES (Invitrogen, cat. 11330032), 5% defined fetal bovine serum (HyClone Laboratories Inc., cat. SH30070.03), ITS premix universal culture supplement [insulin (5 microg/mL), transferrin (5 microg/mL), and selenious acid (5 ng/mL)] […]

[1] = second compound 0.1 µM, first compound 0.0316 µM
[2] = second compound 0.1 µM, first compound 0.1 µM
[3] = second compound 0.1 µM, first compound 0.316 µM
[4] = second compound 0.1 µM, first compound 1 µM
[5] = second compound 0.1 µM, first compound 3.16 µM
[6] = second compound 0.1 µM, first compound 10 µM
[7] = second compound 0.316 µM, first compound 0.0316 µM
[8] = second compound 0.316 µM, first compound 0.1 µM
[9] = second compound 0.316 µM, first compound 0.316 µM
[10] = second compound 0.316 µM, first compound 1 µM
[11] = second compound 0.316 µM, first compound 3.16 µM
[12] = second compound 0.316 µM, first compound 10 µM
[13] = second compound 1 µM, first compound 0.0316 µM
[14] = second compound 1 µM, first compound 0.1 µM
[15] = second compound 1 µM, first compound 0.316 µM
[16] = second compound 1 µM, first compound 1 µM
[17] = second compound 1 µM, first compound 3.16 µM
[18] = second compound 1 µM, first compound 10 µM
[19] = second compound 3.16 µM, first compound 0.0316 µM
[20] = second compound 3.16 µM, first compound 0.1 µM
[21] = second compound 3.16 µM, first compound 0.316 µM
[22] = second compound 3.16 µM, first compound 1 µM
[23] = second compound 3.16 µM, first compound 3.16 µM
[24] = second compound 3.16 µM, first compound 10 µM
[25] = second compound 10 µM, first compound 0.0316 µM
[26] = second compound 10 µM, first compound 0.1 µM
[27] = second compound 10 µM, first compound 0.316 µM
[28] = second compound 10 µM, first compound 1 µM
[29] = second compound 10 µM, first compound 3.16 µM
[30] = second compound 10 µM, first compound 10 µM

CC(C)CC(NC(=O)C(Cc1ccccc1)NC(=O)c1cnccn1)B(O)O (stereo not given) + CC(CO)NC(=O)c1cc(-c2ccc(Cl)cc2)nn(-c2cnn(C)c2)c1=O
IC50 (second compound 0.1 µM): 0.00771 µM
IC50 (second compound 0.316 µM): 0.00836 µM
IC50 (second compound 1 µM): 0.00849 µM
IC50 (second compound 3.16 µM): 0.00794 µM
IC50 (second compound 10 µM): 0.00788 µM
viability, T/C (second compound 0.1 µM, first compound 0.000949 µM): 108%
viability, T/C (second compound 0.1 µM, first compound 0.003 µM): 103%
viability, T/C (second compound 0.1 µM, first compound 0.00949 µM): 38.4%
viability, T/C (second compound 0.1 µM, first compound 0.03 µM): 0.34%
viability, T/C (second compound 0.1 µM, first compound 0.0949 µM): 0.27%
viability, T/C (second compound 0.1 µM, first compound 0.3 µM): 0.18%
viability, T/C (second compound 0.316 µM, first compound 0.000949 µM): 114%
viability, T/C (second compound 0.316 µM, first compound 0.003 µM): 117%
viability, T/C (second compound 0.316 µM, first compound 0.00949 µM): 41.9%
viability, T/C (second compound 0.316 µM, first compound 0.03 µM): 0.39%
viability, T/C (second compound 0.316 µM, first compound 0.0949 µM): 0.19%
viability, T/C (second compound 0.316 µM, first compound 0.3 µM): 0.19%
viability, T/C (second compound 1 µM, first compound 0.000949 µM): 112%
viability, T/C (second compound 1 µM, first compound 0.003 µM): 112%
viability, T/C (second compound 1 µM, first compound 0.00949 µM): 43.3%
viability, T/C (second compound 1 µM, first compound 0.03 µM): 0.56%
viability, T/C (second compound 1 µM, first compound 0.0949 µM): 0.17%
viability, T/C (second compound 1 µM, first compound 0.3 µM): 0.33%
viability, T/C (second compound 3.16 µM, first compound 0.000949 µM): 117%
viability, T/C (second compound 3.16 µM, first compound 0.003 µM): 118%
viability, T/C (second compound 3.16 µM, first compound 0.00949 µM): 37.6%
viability, T/C (second compound 3.16 µM, first compound 0.03 µM): 1.26%
viability, T/C (second compound 3.16 µM, first compound 0.0949 µM): 0.23%
viability, T/C (second compound 3.16 µM, first compound 0.3 µM): 0.25%
viability, T/C (second compound 10 µM, first compound 0.000949 µM): 120%
viability, T/C (second compound 10 µM, first compound 0.003 µM): 127%
viability, T/C (second compound 10 µM, first compound 0.00949 µM): 35.9%
viability, T/C (second compound 10 µM, first compound 0.03 µM): 1.88%
viability, T/C (second compound 10 µM, first compound 0.0949 µM): 0.9%
viability, T/C (second compound 10 µM, first compound 0.3 µM): 0.37%

Nc1ccccc1NC(=O)c1ccc(CNC(=O)OCc2cccnc2)cc1 + CC(CO)NC(=O)c1cc(-c2ccc(Cl)cc2)nn(-c2cnn(C)c2)c1=O
IC50 (second compound 0.1 µM): 5.28 µM
IC50 (second compound 0.316 µM): 5.23 µM
IC50 (second compound 1 µM): 4.78 µM
IC50 (second compound 3.16 µM): 4.6 µM
IC50 (second compound 10 µM): 4.08 µM
viability, T/C [1]: 107%
viability, T/C [2]: 104%
viability, T/C [3]: 110%
viability, T/C [4]: 104%
viability, T/C [5]: 73.8%
viability, T/C [6]: 20.3%
viability, T/C [7]: 114%
viability, T/C [8]: 99.3%
viability, T/C [9]: 113%
viability, T/C [10]: 101%
viability, T/C [11]: 76.7%
viability, T/C [12]: 15.9%
viability, T/C [13]: 101%
viability, T/C [14]: 112%
viability, T/C [15]: 98.1%
viability, T/C [16]: 104%
viability, T/C [17]: 68.5%
viability, T/C [18]: 16.9%
viability, T/C [19]: 111%
viability, T/C [20]: 110%
viability, T/C [21]: 110%
viability, T/C [22]: 92%
viability, T/C [23]: 65.7%
viability, T/C [24]: 18.8%
viability, T/C [25]: 113%
viability, T/C [26]: 114%
viability, T/C [27]: 102%
viability, T/C [28]: 96.4%
viability, T/C [29]: 58%
viability, T/C [30]: 18.8%

O=C(c1cc(Cc2n[nH]c(=O)c3ccccc23)ccc1F)N1CCN(C(=O)C2CC2)CC1 + CC(CO)NC(=O)c1cc(-c2ccc(Cl)cc2)nn(-c2cnn(C)c2)c1=O
IC50 (second compound 0.1 µM): > 10 µM
IC50 (second compound 0.316 µM): > 10 µM
IC50 (second compound 1 µM): > 10 µM
IC50 (second compound 3.16 µM): > 10 µM
IC50 (second compound 10 µM): > 10 µM
viability, T/C [1]: 96.1%
viability, T/C [2]: 101%
viability, T/C [3]: 98.8%
viability, T/C [4]: 102%
viability, T/C [5]: 102%
viability, T/C [6]: 91.5%
viability, T/C [7]: 100%
viability, T/C [8]: 102%
viability, T/C [9]: 97.9%
viability, T/C [10]: 101%
viability, T/C [11]: 98.8%
viability, T/C [12]: 98.9%
viability, T/C [13]: 98.7%
viability, T/C [14]: 102%
viability, T/C [15]: 99.9%
viability, T/C [16]: 103%
viability, T/C [17]: 101%
viability, T/C [18]: 99%
viability, T/C [19]: 97.3%
viability, T/C [20]: 109%
viability, T/C [21]: 95.3%
viability, T/C [22]: 104%
viability, T/C [23]: 99.8%
viability, T/C [24]: 89.9%
viability, T/C [25]: 113%
viability, T/C [26]: 107%
viability, T/C [27]: 108%
viability, T/C [28]: 114%
viability, T/C [29]: 107%
viability, T/C [30]: 90.9%

— PubChem BioAssay AID1919003 (Molecular Pharmacology Branch, DTP, NCI, 2023)
